Publication PMC13266999, “Designing Antibiotics with Inherent Resistance to Efflux as a Strategy to Revive Discovery against Multidrug-Resistant Pathogens” (Journal of Medicinal Chemistry, 2026)
In brackets after ≈: the same amount, converted by molar mass. Read-outs that look alike come from different tables or passages of the source.

How the values were obtained:
A. baumannii strain AYE = test: Time-kill assay; assay type: cell-based; conditions: 4 × MIC
Description: Time-kill assays were performed as defined previously.

Neisseria gonorrhoeae = test: MIC; assay type: cell-based
E. faecalis = test: MIC (microbroth dilution); assay type: cell-based, Enterococcus faecalis; conditions: for MIC: Enterococcus faecalis
Description: All bacteria were maintained on tryptic soy agar (TSA), except Streptococcus spp., which were maintained on Columbia agar plates containing 5% horse blood. […] Bacteria were grown to stationary phase in liquid culture overnight, with shaking at 200 rpm, before being back diluted to the relevant starting concentration for each assay below. MICs were measured by the microbroth dilution method. […] Absorbance at OD600 was read on a CLARIOstar spectrophotometer (BMG Labtech) and the MIC was defined as the minimum concentration of compound where no visible growth was detected. […] MICs were also performed in the presence of the outer membrane permeator, polymyxin b nonapeptide (PMBN) following the same MIC method but with the following variation. The 2-fold dilution series of compound was prepared as above, then 50 μL of PMBN at a final concentration of 30 μg/mL was added to relevant wells, while 50 μL/well of blank media was added to the remaining wells. Bacteria were then added at 50 μL/well for a starting concentration as above. […] The MICs were read and defined as above. All animal procedures were performed by the contract research organization Pharmacology Discovery Services Taiwan in accordance with the Guide for the Care and Use of Laboratory Animals. The procedures were approved by the Institutional Ethics Committee of Pharmacology Discovery Services Taiwan, Ltd. (approval no. AB127662), in compliance with animal welfare legislation in Taiwan.

A. baumannii = A. baumannii efflux chequerboard assay; assay type: cell-based, Acinetobacter baumannii; conditions: for MIC: Acinetobacter baumannii
Description: Checkerboard assays were performed by preparing two separate 2-fold dilution series of compounds in two 96 well plates, one horizontally, one vertically. […] Plates were incubated at 37 C for 20 h and the absorbance (OD600) was read on a CLARIOstar spectrophotometer (BMG Labtech). The fractional inhibitory concentration was calculated as follows: ΣFIC = [(MIC of A in combination)/(MIC of A alone)] + [(MIC of B in combination)/(MIC of B alone)].

C[C@H]1COc2c(N3CC[C@@H](Nc4ncccn4)C3)c(F)cc3c(=O)c(C(=O)O)cn1c23 [Compound 46, (S)-9-Fluoro-3-methyl-7-oxo-10-((R)-3-(pyrimidin-2-ylamino)pyrrolidin-1-yl)-2,3-dihydro-7H-[1,4]oxazino[2,3,4-ij]quinoline-6-carboxylic acid]
time-kill profile (A. baumannii strain AYE): rapid bactericidal activity | MIC (Neisseria gonorrhoeae; 2007NG046): 4 µg/mL (≈ 9.4 µM) | MIC (Neisseria gonorrhoeae; 2008NG057): 2 µg/mL (≈ 4.7 µM) | MIC (Neisseria gonorrhoeae; 2008NG097): 2 µg/mL (≈ 4.7 µM) | MIC (Neisseria gonorrhoeae; 2009NG514): 2 µg/mL (≈ 4.7 µM) | MIC (Neisseria gonorrhoeae; 2010NG122): 2 µg/mL (≈ 4.7 µM) | MIC (Neisseria gonorrhoeae; ATCC49226, ATCC 49226): ≤ 0.03 µg/mL | MIC (Neisseria gonorrhoeae; ATCC700825, ATCC 700825): ≤ 0.03 µg/mL | MIC (Neisseria gonorrhoeae; BAA1833, BAA-1833): ≤ 0.03 µg/mL | MIC (Neisseria gonorrhoeae; BAA1838, BAA-1838): ≤ 0.03 µg/mL | MIC (Neisseria gonorrhoeae; CCUG57595, CCUG 57595): ≤ 0.03 µg/mL | MIC (Neisseria gonorrhoeae; CCUG57596, CCUG 57596): 0.125 µg/mL (≈ 0.294 µM) | MIC (Neisseria gonorrhoeae; CCUG57597, CCUG 57597): 2 µg/mL (≈ 4.7 µM) | MIC (Neisseria gonorrhoeae; CCUG57598, CCUG 57598): 2 µg/mL (≈ 4.7 µM) | MIC (Neisseria gonorrhoeae; CCUG57599, CCUG 57599): 0.5 µg/mL (≈ 1.18 µM) | MIC (Neisseria gonorrhoeae; CCUG57600, CCUG 57600): 1 µg/mL (≈ 2.35 µM) | MIC (Neisseria gonorrhoeae; CCUG57601, CCUG 57601): ≤ 0.03 µg/mL | MIC (Neisseria gonorrhoeae; CCUG57602, CCUG 57602): 0.06 µg/mL (≈ 0.141 µM) | MIC (Neisseria gonorrhoeae; FDA-CDC AR-BANK#0165): 2 µg/mL (≈ 4.7 µM) | MIC (Neisseria gonorrhoeae; FDA-CDC AR-BANK#0166): 2 µg/mL (≈ 4.7 µM) | MIC (Neisseria gonorrhoeae; FDA-CDC AR-BANK#0167): ≤ 0.03 µg/mL | MIC (Neisseria gonorrhoeae; FDA-CDC AR-BANK#0168): 1 µg/mL (≈ 2.35 µM) | MIC (Neisseria gonorrhoeae; FDA-CDC AR-BANK#0169): 2 µg/mL (≈ 4.7 µM) | MIC (Neisseria gonorrhoeae; FDA-CDC AR-BANK#0170): 2 µg/mL (≈ 4.7 µM) | MIC (Neisseria gonorrhoeae; FDA-CDC AR-BANK#0171): 1 µg/mL (≈ 2.35 µM) | MIC (Neisseria gonorrhoeae; FDA-CDC AR-BANK#0172): 1 µg/mL (≈ 2.35 µM) | MIC (Neisseria gonorrhoeae; FDA-CDC AR-BANK#0173): 2 µg/mL (≈ 4.7 µM) | MIC (Neisseria gonorrhoeae; FDA-CDC AR-BANK#0174): 2 µg/mL (≈ 4.7 µM) | MIC (Neisseria gonorrhoeae; FDA-CDC AR-BANK#0175): ≤ 0.03 µg/mL | MIC (Neisseria gonorrhoeae; FDA-CDC AR-BANK#0176): 2 µg/mL (≈ 4.7 µM) | MIC (Neisseria gonorrhoeae; FDA-CDC AR-BANK#0177): ≤ 0.03 µg/mL | MIC (Neisseria gonorrhoeae; FDA-CDC AR-BANK#0178): 2 µg/mL (≈ 4.7 µM) | MIC (Neisseria gonorrhoeae; FDA-CDC AR-BANK#0179): ≤ 0.03 µg/mL | MIC (Neisseria gonorrhoeae; FDA-CDC AR-BANK#0180): 2 µg/mL (≈ 4.7 µM) | MIC (Neisseria gonorrhoeae; FDA-CDC AR-BANK#0181): ≤ 0.03 µg/mL | MIC (Neisseria gonorrhoeae; FDA-CDC AR-BANK#0182): 2 µg/mL (≈ 4.7 µM) | MIC (Neisseria gonorrhoeae; FDA-CDC AR-BANK#0183): 2 µg/mL (≈ 4.7 µM) | MIC (Neisseria gonorrhoeae; FDA-CDC AR-BANK#0184): 2 µg/mL (≈ 4.7 µM) | MIC (Neisseria gonorrhoeae; FDA-CDC AR-BANK#0185): 2 µg/mL (≈ 4.7 µM) | MIC (Neisseria gonorrhoeae; FDA-CDC AR-BANK#0186): 1 µg/mL (≈ 2.35 µM) | MIC (Neisseria gonorrhoeae; FDA-CDC AR-BANK#0187): 2 µg/mL (≈ 4.7 µM) | MIC (Neisseria gonorrhoeae; FDA-CDC AR-BANK#0188): 1 µg/mL (≈ 2.35 µM) | MIC (Neisseria gonorrhoeae; FDA-CDC AR-BANK#0189): 2 µg/mL (≈ 4.7 µM) | MIC (Neisseria gonorrhoeae; FDA-CDC AR-BANK#0190): 2 µg/mL (≈ 4.7 µM) | MIC (Neisseria gonorrhoeae; FDA-CDC AR-BANK#0191): 2 µg/mL (≈ 4.7 µM) | MIC (Neisseria gonorrhoeae; FDA-CDC AR-BANK#0192): 2 µg/mL (≈ 4.7 µM) | MIC (Neisseria gonorrhoeae; FDA-CDC AR-BANK#0193): ≤ 0.03 µg/mL | MIC (Neisseria gonorrhoeae; FDA-CDC AR-BANK#0194): ≤ 0.03 µg/mL | MIC (Neisseria gonorrhoeae; FDA-CDC AR-BANK#0195): 2 µg/mL (≈ 4.7 µM) | MIC (Neisseria gonorrhoeae; FDA-CDC AR-BANK#0196): 2 µg/mL (≈ 4.7 µM) | MIC (Neisseria gonorrhoeae; FDA-CDC AR-BANK#0197): 2 µg/mL (≈ 4.7 µM) | MIC (Neisseria gonorrhoeae; FDA-CDC AR-BANK#0198): 2 µg/mL (≈ 4.7 µM) | MIC (Neisseria gonorrhoeae; FDA-CDC AR-BANK#0199): ≤ 0.03 µg/mL | MIC (Neisseria gonorrhoeae; FDA-CDC AR-BANK#0200): 2 µg/mL (≈ 4.7 µM) | MIC (Neisseria gonorrhoeae; FDA-CDC AR-BANK#0201): 2 µg/mL (≈ 4.7 µM) | MIC (Neisseria gonorrhoeae; FDA-CDC AR-BANK#0202): ≤ 0.03 µg/mL | MIC (Neisseria gonorrhoeae; FDA-CDC AR-BANK#0203): 2 µg/mL (≈ 4.7 µM) | MIC (Neisseria gonorrhoeae; FDA-CDC AR-BANK#0204): 2 µg/mL (≈ 4.7 µM) | MIC (Neisseria gonorrhoeae; FDA-CDC AR-BANK#0205): 2 µg/mL (≈ 4.7 µM) | MIC (Neisseria gonorrhoeae; FDA-CDC AR-BANK#0206): 2 µg/mL (≈ 4.7 µM) | MIC (Neisseria gonorrhoeae; FDA-CDC AR-BANK#0207): 2 µg/mL (≈ 4.7 µM) | MIC (Neisseria gonorrhoeae; FDA-CDC AR-BANK#0208): 2 µg/mL (≈ 4.7 µM) | MIC (Neisseria gonorrhoeae; FDA-CDC AR-BANK#0209): 2 µg/mL (≈ 4.7 µM) | MIC (Neisseria gonorrhoeae; FDA-CDC AR-BANK#0210): 2 µg/mL (≈ 4.7 µM) | MIC (Neisseria gonorrhoeae; FDA-CDC AR-BANK#0211): 2 µg/mL (≈ 4.7 µM) | MIC (Neisseria gonorrhoeae; FDA-CDC AR-BANK#0212): 2 µg/mL (≈ 4.7 µM) | MIC (Neisseria gonorrhoeae; FDA-CDC AR-BANK#0213): 1 µg/mL (≈ 2.35 µM) | MIC (Neisseria gonorrhoeae; FDA-CDC AR-BANK#0214): 2 µg/mL (≈ 4.7 µM) | MIC (Neisseria gonorrhoeae; NCTC13477, NCTC 13477): ≤ 0.125 µg/mL | MIC (Neisseria gonorrhoeae; NCTC13817, NCTC 13817): 0.5 µg/mL (≈ 1.18 µM) | MIC (Neisseria gonorrhoeae; NCTC13818, NCTC 13818): 2 µg/mL (≈ 4.7 µM) | MIC (Neisseria gonorrhoeae; NCTC13819, NCTC 13819): 2 µg/mL (≈ 4.7 µM) | MIC (Neisseria gonorrhoeae; NCTC13820, NCTC 13820): 2 µg/mL (≈ 4.7 µM) | MIC (Neisseria gonorrhoeae; NCTC13821, NCTC 13821): 2 µg/mL (≈ 4.7 µM) | MIC (Neisseria gonorrhoeae; NCTC13822, NCTC 13822): 2 µg/mL (≈ 4.7 µM) | MIC (Neisseria gonorrhoeae; TCDC-NG08107): 2 µg/mL (≈ 4.7 µM) | MIC90 (Neisseria gonorrhoeae; panel of 75 clinical isolates): 2 µg/mL (≈ 4.7 µM) | MIC (Neisseria gonorrhoeae; several isolates of the panel): 0.03 to 0.5 µg/mL (≈ 0.0705 to 1.18 µM)

Cc1cc(C)nc(N[C@@H]2CCN(c3c(F)cc4c(=O)c(C(=O)O)cn5c4c3OC[C@@H]5C)C2)n1 [Compound 50, (S)-10-((R)-3-((4,6-Dimethylpyrimidin-2-yl)amino)pyrrolidin-1-yl)-9-fluoro-3-methyl-7-oxo-2,3-dihydro-7H-[1,4]oxazino[2,3,4-ij]quinoline-6-carboxylic acid]
MIC (E. faecalis; ATCC29212, ATCC 29212, read-out: MIC): 0.25 µg/mL (≈ 0.551 µM) | MIC (E. faecalis; ATCC51299): 0.125 µg/mL (≈ 0.276 µM) | MIC (E. faecalis; ATCC51575, VanB (ATCC 51575), read-out: MIC): 0.25 µg/mL (≈ 0.551 µM) | MIC (E. faecalis; ATCC700802): 0.125 µg/mL (≈ 0.276 µM) | MIC (E. faecalis; CCUG47775, VanA (CCUG 47775), read-out: MIC): 0.5 µg/mL (≈ 1.1 µM) | MIC range (E. faecalis; clinical isolates, Table S11B): 0.125 to 0.5 µg/mL

C[C@H]1COc2c(N3CCN(C)CC3)c(F)cc3c(=O)c(C(=O)O)cn1c23 [Levofloxacin, (S)-9-Fluoro-3-methyl-10-(4-methylpiperazin-1-yl)-7-oxo-2,3-dihydro-7H-[1,4]oxazino[2,3,4-ij]quinoline-6-carboxylic acid, reference compound]
MIC +50 (0.25x MIC) (A. baumannii; A. baumannii ATCC 17978): 0.007 to 0.06 µg/mL | MIC +50 (0.5x MIC) (A. baumannii; A. baumannii ATCC 17978): 0.009 to 0.06 µg/mL | MIC +50 (0.25x MIC) (A. baumannii; A. baumannii AYE): 0.014 to 1.88 µg/mL | MIC +50 (0.5x MIC) (A. baumannii; A. baumannii AYE): 0.012 to 0.9 µg/mL | MIC (A. baumannii; ATCC17978, read-out: MIC alone): 0.125 µg/mL | MIC (A. baumannii; read-out: MIC alone): 4 µg/mL
